From patent publication US10970594B2, “Magnetic resonance maps for analyzing tissue” (Tel HaShomer Medical Research Infrastructure and Services …, priority 2011, dated 2021)

What was measured:
[1] = system: recurrent GBM; assay: Delayed enhancement subtraction maps and T1-weighted MRI of patients treated with bevacizumab (Example 5); assay type: in vivo, human
Method: In the present example, the delayed enhancement subtraction maps of the present embodiments are used for analyzing brain MRI of subjects treated with bevacizumab.
Four patients were subjected to bevacizumab (Avastin®) treatment. High resolution T1-weighted MR images were acquired and subtraction maps were calculated from these images. Acquisition sessions were held before treatment and several times after treatment. The predetermined time interval between two subtracted images was 75 minutes. Histological analysis was performed with tissue samples obtained from the on of these patients which underwent surgery after treatment with Avastin.

[2] = system: GBM lesion; assay: Vessel function maps of GBM patients given Bevacizumab IV after failing first line chemoradiation (Example 2, preliminary results); assay type: in vivo, human; settings: for change of the lesion in the map: patient #1, GBM lesion of FIG. 8
Method: Two GBM patients who failed first line chemoradiation were given Bevacizumab as an IV infusion, 10 mg/kg body weight every 2 weeks (standard Bevacizumab regimen for GBM patients).
The patients were recruited before Bevacizumab treatment was initiated. They underwent the first MRI exam prior to treatment. Second and third MRI exams are performed 1 week and 1 month after the administration of the first Bevacizumab dose. Two more MRI exams are performed at 3 and 5 months post initiation of treatment.
Vessel function maps were calculated at 15 and 75 min after contrast injection. Examples of two patients with 3 GBM lesions with different presentations of response to Avastin, are shown below. The response pattern to Avastin and the physiological meaning of the observed changes in the maps, are being studied.

[3] = common adverse effects hypertension and proteinuria; thromboembolic disease and hemorrhage infrequent; cited from earlier work
[4] = patient of FIGS. 30A-F, at 3 months
[5] = patient of FIGS. 30A-F, first month after initiation of treatment
[6] = patient of FIGS. 31A-F, first 3 months
[7] = patient of FIGS. 32A-H, at 1 month
[8] = patient of FIGS. 32A-H, at 3 months, after re-irradiation
[9] = patient of FIGS. 32A-H, first week
[10] = patient #2, FIG. 12, 1 week after the first treatment

bevacizumab
enhancing lesion decreased by, of its original volume [1, 4]: about 57% | red volume decreased by [1, 4]: about 40% | blue volume increased by ([1]; patient of FIGS. 30A-F, at 3 months, suggesting progression): about 25% | blue volume [1, 5]: stable | enhancing lesion volume (on T1-Gd) decreased by [1, 5]: about 50% | red volume decreased by [1, 5]: about 50% | blue volume ([1]; patient of FIGS. 31A-F, 5 months MRI, after re-irradiation during bevacizumab treatment): decreased significantly | blue volume [1, 6]: increased significantly | edema [1, 6]: decreased | lesion volume on T1-Gd [1, 6]: stable | blue volume increased by [1, 7]: 200% | enhancing volume increased by [1, 7]: 70% | red volume decreased by [1, 7]: about 50% | blue volume increased by [1, 8]: over 500% | enhancing lesion volume increased by [1, 8]: over 500% | red volume increased by [1, 8]: over 500% | blue volume decreased by [1, 9]: 20% | enhancing lesion volume (on T1-Gd) [1, 9]: stable | red volume increased by [1, 9]: 30% | change of the lesion in the map ([2]; 1 month follow-up): minor changes | change of the lesion in the map ([2]; first week of treatment): became more prominently blue | blue component ([2]; patient #1, recurrent GBM lesion of FIG. 10, 1 month later): increase | blue component ([2]; patient #1, recurrent GBM lesion of FIG. 10, first week post treatment): decrease | blue component [2, 10]: has not decreased | edema [2, 10]: somewhat relieved | pressure on the brain [2, 10]: relieved | red component of the lesion [2, 10]: significantly decreased | blue component ([2]; patient #2, FIG. 12, 3-months follow-up, in parallel to clinical deterioration, no sign of progression on conventional MRI): continued to increase | tolerability [3]: generally well tolerated
